Results: ChEMBL document CHEMBL3627701, “(2-Arylethenyl)-1,3,5-triazin-2-amines as a novel histamine H4 receptor ligands” (Eur J Med Chem, 2015)
One block for each molecule: values may come before it. Activity calls are given as the source filed them. The rule behind the calls is not given here.

What was measured:
Histamine H4 receptor [1] = molecular target: T1, Histamine H4 receptor (Homo sapiens, UniProt Q9H3N8); assay: Displacement of [3H]histamine from human H4 receptor expressed in Sf9 cell membranes co-expressing Galphai2 and Gbeta1gamma2 after 60 mins by liquid scintillation counting assay; format: cell-based
[2] = molecular target: Histamine H3 receptor (Homo sapiens) (UniProt Q9Y5N1); assay: Displacement of [3H]-N-alpha-methylhistamine from human H3 receptor expressed in HEK293 cells at >=30 uM after 60 mins by liquid scintillation counter assay; format: cell-based
Histamine H3 receptor (Homo sapiens), sequence (Q9Y5N1 whole entry): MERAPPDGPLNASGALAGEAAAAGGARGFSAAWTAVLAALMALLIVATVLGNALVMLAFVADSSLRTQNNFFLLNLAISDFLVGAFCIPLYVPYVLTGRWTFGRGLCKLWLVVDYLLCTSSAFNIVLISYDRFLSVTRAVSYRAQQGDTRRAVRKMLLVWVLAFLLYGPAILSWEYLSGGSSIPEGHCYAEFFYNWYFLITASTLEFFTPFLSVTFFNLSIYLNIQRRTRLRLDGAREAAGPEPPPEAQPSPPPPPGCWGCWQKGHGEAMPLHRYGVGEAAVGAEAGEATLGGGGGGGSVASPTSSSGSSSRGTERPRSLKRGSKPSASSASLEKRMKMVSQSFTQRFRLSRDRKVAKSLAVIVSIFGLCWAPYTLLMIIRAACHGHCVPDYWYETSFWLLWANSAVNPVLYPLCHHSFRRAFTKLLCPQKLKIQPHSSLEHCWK

HEK293 = assay: Antiproliferative activity against HEK293 cells assessed as inhibition of cell viability at 0.01 to 250 uM after 48 hrs; format: cell-based; settings: human, hek293, 48 h
Mus musculus [3] = assay: Antiinflammatory activity in albino Swiss mouse assessed as inhibition of carrageenan-induced paw edema at 25 mg/kg, po administered prior to carrageenan challenge measured after 3 hrs by plethysmometry relative to control; format: functional
Liver microsome [4] = assay: Retention time in human liver microsomes at 50 uM after 48 hrs by LC-MS analysis; format: ADME
Mus musculus [5] = assay: Antiinflammatory activity in albino Swiss mouse assessed as inhibition of carrageenan-induced paw edema at 50 mg/kg, po administered prior to carrageenan challenge measured after 3 hrs by plethysmometry relative to control; format: functional
[6] = Ratio of IC50 for doxorubicin to antiproliferative activity for test compound against human IMR32 cells; format: cell-based, IMR-32; settings: read-out: Ratio IC50
Mus musculus [7] = assay: Antiinflammatory activity in albino Swiss mouse assessed as inhibition of carrageenan-induced paw edema at 25 mg/kg, po administered prior to carrageenan challenge measured after 2 hrs by plethysmometry relative to control; format: functional
Mus musculus [8] = assay: Antiinflammatory activity in albino Swiss mouse assessed as inhibition of carrageenan-induced paw edema at 50 mg/kg, po administered prior to carrageenan challenge measured after 2 hrs by plethysmometry relative to control; format: functional
CYP3A4 = CYP3A4 (Homo sapiens, UniProt P08684); assay: Inhibition of human recombinant CYP3A4 assessed as conversion of luciferin-PPXE to D-luciferin at 25 uM by luminescence Glo assay relative to control; format: ADME; settings: recombinant CYP3A4, probe luciferin-PPXE
CYP3A4, sequence (P08684 whole entry): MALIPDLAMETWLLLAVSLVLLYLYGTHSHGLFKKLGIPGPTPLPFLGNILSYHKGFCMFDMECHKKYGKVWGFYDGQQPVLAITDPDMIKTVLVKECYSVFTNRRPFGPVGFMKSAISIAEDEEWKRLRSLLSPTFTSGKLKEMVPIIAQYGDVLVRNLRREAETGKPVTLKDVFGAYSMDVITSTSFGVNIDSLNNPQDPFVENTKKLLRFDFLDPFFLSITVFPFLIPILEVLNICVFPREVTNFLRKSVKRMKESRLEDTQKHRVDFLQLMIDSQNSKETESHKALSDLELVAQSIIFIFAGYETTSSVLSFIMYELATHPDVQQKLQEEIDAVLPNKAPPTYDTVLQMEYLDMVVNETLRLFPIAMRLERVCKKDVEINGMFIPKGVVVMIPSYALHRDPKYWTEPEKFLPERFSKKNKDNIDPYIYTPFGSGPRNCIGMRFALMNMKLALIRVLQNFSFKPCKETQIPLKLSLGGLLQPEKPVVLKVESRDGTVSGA

Histamine H4 receptor [9] = molecular target: T2, Histamine H4 receptor (Mus musculus, UniProt Q91ZY2); assay: Displacement of [3H]histamine from mouse H4 receptor expressed in HEK293 cell membranes co-expressing Galphai2 and Gbeta1gamma2 after 1 hr by liquid scintillation counting assay
T2 sequence (Q91ZY2 whole entry): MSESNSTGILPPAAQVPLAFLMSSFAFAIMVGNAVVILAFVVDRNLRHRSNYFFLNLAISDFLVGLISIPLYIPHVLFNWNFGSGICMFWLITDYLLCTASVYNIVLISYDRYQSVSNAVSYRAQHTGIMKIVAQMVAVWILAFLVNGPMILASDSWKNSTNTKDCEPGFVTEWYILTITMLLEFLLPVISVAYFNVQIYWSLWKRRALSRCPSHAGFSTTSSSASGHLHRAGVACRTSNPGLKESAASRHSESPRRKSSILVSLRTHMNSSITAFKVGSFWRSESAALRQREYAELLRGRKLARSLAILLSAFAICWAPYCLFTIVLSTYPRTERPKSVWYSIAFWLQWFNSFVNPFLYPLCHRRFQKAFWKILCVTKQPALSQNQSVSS

Mus musculus [10] = assay: Antiinflammatory activity in albino Swiss mouse assessed as inhibition of carrageenan-induced paw edema at 10 mg/kg, po administered prior to carrageenan challenge measured after 1 to 3 hrs by plethysmometry relative to control; format: functional
Salmonella typhimurium = assay: Genotoxicity in Salmonella typhimurium TA98 at 1 to 100 uM after 48 hrs by MPF assay; format: toxicity, organism-based; settings: salmonella enterica subsp. enterica serovar typhimurium
Mus musculus [11] = assay: Antiinflammatory activity in albino Swiss mouse assessed as inhibition of carrageenan-induced paw edema at 50 mg/kg, po administered prior to carrageenan challenge measured after 1 hr by plethysmometry relative to control; format: functional
Histamine H4 receptor [12] = molecular target: T1, Histamine H4 receptor; assay: Antagonist activity at human H4R expressed in CHO cells assessed as inhibition of forskolin-induced cAMP accumulation after 30 mins by TR-FRET immunoassay; format: functional, cell-based
Liver microsome [13] = assay: Drug metabolism in human liver microsomes assessed as metabolite M1 formation at 50 uM after 48 hrs by LC-MS analysis; format: ADME
[14] = Antiproliferative activity against human IMR32 cells assessed as inhibition of cell viability at 0.01 to 250 uM after 48 hrs; format: cell-based; settings: imr-32, 48 h
Mus musculus [15] = assay: Antiinflammatory activity in albino Swiss mouse assessed as inhibition of carrageenan-induced paw edema at 25 mg/kg, po administered prior to carrageenan challenge measured after 1 hr by plethysmometry relative to control; format: functional
Liver microsome [16] = assay: Drug metabolism in human liver microsomes assessed as metabolite M2 formation at 50 uM after 48 hrs by LC-MS analysis; format: ADME
[17] = Antiproliferative activity against human IMR32 cells assessed as inhibition of cell viability after 48 hrs; format: cell-based; settings: IMR-32, 48 h
Mus musculus [18] = assay: Antiinflammatory activity in albino Swiss mouse assessed as inhibition of carrageenan-induced paw edema at 10 mg/kg, po administered prior to carrageenan challenge measured after 2 hrs by plethysmometry relative to control; format: functional
Mus musculus [19] = assay: Antiinflammatory activity in albino Swiss mouse assessed as inhibition of carrageenan-induced paw edema at 10 mg/kg, po administered prior to carrageenan challenge measured after 1 hr by plethysmometry relative to control; format: functional
Mus musculus [20] = assay: Antiinflammatory activity in albino Swiss mouse assessed as inhibition of carrageenan-induced paw edema at 10 mg/kg, po administered prior to carrageenan challenge measured after 3 hrs by plethysmometry relative to control; format: functional
Liver microsome [21] = assay: Drug level in human liver microsomes treated with 50 uM 4-[(E)-2-(3-chlorophenyl)ethenyl]-6-(4-methylpiperazin-1-yl)-1,3,5-triazin-2-amine assessed as compound formation after 48 hrs by LC-MS analysis; format: ADME
Mus musculus [22] = assay: Antiinflammatory activity in albino Swiss mouse assessed as inhibition of carrageenan-induced paw edema at 50 mg/kg, po administered prior to carrageenan challenge measured after 1 to 3 hrs by plethysmometry relative to control; format: functional
Mus musculus [23] = assay: Antiinflammatory activity in albino Swiss mouse assessed as inhibition of carrageenan-induced paw edema at 25 mg/kg, po administered prior to carrageenan challenge measured after 1 to 3 hrs by plethysmometry relative to control; format: functional

SMILES: CN1CCN(c2nc(N)nc(/C=C/c3c[nH]c4ccccc34)n2)CC1
Ki (Histamine H4 receptor [1]): 2520 nM

SMILES: CN1CCN(c2nc(N)nc(/C=C/c3ccc(Cl)cc3)n2)CC1
Ki (Histamine H4 receptor [1]): 4210 nM

SMILES: CN1CCN(c2nc(N)nc(/C=C/c3ccc4ccccc4c3)n2)CC1
Ki (Histamine H4 receptor [1]): 3790 nM

SMILES: CN1CCN(c2nc(N)nc(/C=C/c3ccccc3Cl)n2)CC1
Ki (Histamine H4 receptor [1]): 4860 nM

SMILES: COc1cccc2c1C(=O)c1c(O)c3c(c(O)c1C2=O)C[C@@](O)(C(=O)CO)C[C@@H]3O[C@H]1C[C@H](N)[C@H](O)[C@H](C)O1 [DOXORUBICIN]
IC50 [17]: 5.1 nM

SMILES: CN1CCN(c2nc(N)nc(/C=C/c3ccc(Cl)c(Cl)c3)n2)CC1
Ki (Histamine H4 receptor [1]): 1780 nM

SMILES: CN1CCN(c2nc(N)nc(/C=C/c3ccc(Cl)cc3Cl)n2)CC1
Ki (Histamine H4 receptor [1]): 9040 nM

SMILES: Cc1ccccc1/C=C/c1nc(N)nc(N2CCN(C)CC2)n1
Ki (Histamine H4 receptor [1]): 2230 nM

SMILES: CC(C(=O)O)c1cccc(C(=O)c2ccccc2)c1 (stereo unspecified) [KETOPROFEN]
inhibition in vivo at 25 mg/kg (Mus musculus [3]): 67%
inhibition in vivo at 50 mg/kg (Mus musculus [5]): 77%
inhibition in vivo at 25 mg/kg (Mus musculus [7]): 54%
inhibition in vivo at 50 mg/kg (Mus musculus [8]): 71%
inhibition in vivo at 10 mg/kg (Mus musculus [18]): 55%
inhibition in vivo at 50 mg/kg (Mus musculus [11]): 67%
inhibition in vivo at 25 mg/kg (Mus musculus [15]): 20%
inhibition in vivo at 10 mg/kg (Mus musculus [19]): 27%
inhibition in vivo at 10 mg/kg (Mus musculus [20]): 63%

SMILES: Nc1nc(/C=C/c2cccc(Cl)c2)nc(N2CCNCC2)n1
Retention_time (Liver microsome [4]): 3.55 min
Drug metabolism (Liver microsome [21]): metabolite_detected

SMILES: Cc1ccc(/C=C/c2nc(N)nc(N3CCN(C)CC3)n2)cc1
Ki (Histamine H4 receptor [1]): 37400 nM

SMILES: CN1CCN(c2nc(N)nc(/C=C/c3cccc4ccccc34)n2)CC1
Ki (Histamine H4 receptor [1]): 30000 nM

The next lines start with results.

Ki (Histamine H4 receptor [1]): 3520 nM
SMILES: CN1CCN(c2nc(N)nc(/C=C/c3cccc(F)c3)n2)CC1

Ki (Histamine H4 receptor [1]): 2640 nM
SMILES: CN1CCN(c2nc(N)nc(/C=C/c3cccc(C#N)c3)n2)CC1

inhibition [2]: Active
Retention_time (Liver microsome [4]): 3.63 min
Ki (Histamine H4 receptor [1]): 253 nM
inhibition at 25 µM (CYP3A4): 58%
Ki (Histamine H4 receptor [9]): 854 nM
IC50 (Histamine H4 receptor [12]): 439 nM
Drug metabolism (Liver microsome [13]): metabolite_detected
Drug metabolism (Liver microsome [16]): metabolite_detected
SMILES: CN1CCN(c2nc(N)nc(/C=C/c3cccc(Cl)c3)n2)CC1
Activity (HEK293): Non-toxic
inhibition in vivo at 25 mg/kg (Mus musculus [3]): 65%
inhibition in vivo at 50 mg/kg (Mus musculus [5]): 67%
selectivity ratio [6]: > 1000
inhibition in vivo at 25 mg/kg (Mus musculus [7]): 58%
inhibition in vivo at 50 mg/kg (Mus musculus [8]): 62%
inhibition in vivo at 10 mg/kg (Mus musculus [10]): 50%
Activity (Salmonella typhimurium): Non-toxic
inhibition in vivo at 50 mg/kg (Mus musculus [11]): 69%
Activity [14]: Non-toxic
inhibition in vivo at 25 mg/kg (Mus musculus [15]): 59%

Ki (Histamine H4 receptor [1]): 2450 nM
SMILES: CN1CCN(c2nc(N)nc(/C=C/c3cccc(C(F)(F)F)c3)n2)CC1

Ki (Histamine H4 receptor [1]): 2570 nM
SMILES: CN1CCN(c2nc(N)nc(/C=C/c3cccc([N+](=O)[O-])c3)n2)CC1

Ki (Histamine H4 receptor [1]): 1140 nM
SMILES: CN1CCN(c2nc(N)nc(/C=C/c3cccc(Br)c3)n2)CC1

inhibition [2]: Active
Ki (Histamine H4 receptor [1]): 703 nM
IC50 (Histamine H4 receptor [12]): 606 nM
SMILES: Cc1cccc(/C=C/c2nc(N)nc(N3CCN(C)CC3)n2)c1
inhibition in vivo at 50 mg/kg (Mus musculus [22]): 88%
inhibition in vivo at 25 mg/kg (Mus musculus [23]): 53%

Ki (Histamine H4 receptor [1]): 5210 nM
SMILES: CN1CCN(c2nc(N)nc(/C=C/c3ccccc3)n2)CC1
